Data reported in patent publication US20120308554A1, “VEGF-D/VEGFR2/3-MEDIATED REGULATION OF DENDRITES” (UNIVERSITAT HEIDELBERG, priority 2011, published 2012).

Tests used:
Type in all cases: cell-based, mice
[1] = test system: VEGFD, VEGF, VEGFC and VEGFR3; experiment: qRT-PCR analysis of shRNA knock-down of VEGF family members; settings: hippocampal neurons infected with rAAV
Method: Total RNA was isolated at DIV10 to DIV13 from hippocampal primary neuron cultures or isolated brain tissues with Rneasy Mini Kit (Qiagen, Hilden, Germany) including an optional Dnase I treatment at room temperature for 15 min according to manufacturer's instructions (Qiagen). 1.2 μg of extracted RNA was reverse transcribed into first strand cDNA using High Capacity cDNA Reverse Transcription kit (Applied Biosystems, Foster City, Calif.). Quantitative reverse transcriptase PCR (qRT-PCR) was done on an ABI7300 thermal cycler using Universal qRT-PCR master mix with TaqMan Gene Expression Assays for the indicated genes (Applied Biosystems). The following TaqMan Gene Expression Assays were used in this study: Gusb (Mm00446953_m1), cFos (Mm00487425_m1), VEGFD (Mm00438965_m1), VEGFC (Mm01202432_m1), VEGF (Mm01281449_m1), VEGFR3 (Mm01292618_m1), beta-actin (Mm00607939_s1), beta-2 microglobulin (Mm00437762_m1), CBP (Mm01342435_m1), p38 MAPK alpha (Mm00442497_m1), p38 MAPK beta (Mm00440955_m1). Expression of target genes was normalized against the expression of Gusb as endogenous control gene. Data were derived from at least 5 independent experiments. For expression of shRNAs, an rAAV vector containing the U6 promoter for shRNA expression and a CaMKII promoter driving mCherry expression was used. Three different sequences were obtained from Open Biosystems ([…] 2 and […] 3), cloned and tested for silencing efficiency. […] As control, a scramble version of this sequence ([…] ID NO: 2) and the vector carrying only the mCherry ([…]) were used. Shp38alpha [NT] ID NO: 3), shp38beta [NT] ID NO: 4), […] ID NO: 5), […] ID NO: 6) and […] ID NO: 7; sequence obtained from Open Biosystems www.openbiosystems.com) were also cloned into the same vector. CBP expression level was knocked down using a pool of four short interfering RNAs (siRNAs) targeting mouse CBP (Accell siRNA SMARTpool; Thermo Scientific Dharmacon). The SMARTpool is a group of four siRNAs that have been screened to reduce a variety of potential off-target effects including the inclusion of miRNA (microRNA)-like seed motifs. Silencing of GAPDH was measured using Accell mouse GAPDH as a positive control, and as a negative control, a non-targeting Accell mouse siRNA pool was used. In addition, a fluorescently labeled non-targeting Accell mouse siRNA was also used to evaluate penetration efficiency in hippocampal neurons via immunocytochemistry. Briefly, 500 nM siRNAs were supplemented in the serum-free culturing medium at DIV8, and mRNA levels were analyzed at DIV13.

VEGFC = experiment: qRT-PCR analysis of VEGFC expression in hippocampal neurons; settings: hippocampal neurons infected with rAAV
Method: (§1) Total RNA was isolated at DIV10 to DIV13 from hippocampal primary neuron cultures or isolated brain tissues with Rneasy Mini Kit (Qiagen, Hilden, Germany) including an optional Dnase I treatment at room temperature for 15 min according to manufacturer's instructions (Qiagen). 1.2 μg of extracted RNA was reverse transcribed into first strand cDNA using High Capacity cDNA Reverse Transcription kit (Applied Biosystems, Foster City, Calif.).
(§2) Quantitative reverse transcriptase PCR (qRT-PCR) was done on an ABI7300 thermal cycler using Universal qRT-PCR master mix with TaqMan Gene Expression Assays for the indicated genes (Applied Biosystems). The following TaqMan Gene Expression Assays were used in this study: Gusb (Mm00446953_m1), cFos (Mm00487425_m1), VEGFD (Mm00438965_m1), VEGFC (Mm01202432_m1), VEGF (Mm01281449_m1), VEGFR3 (Mm01292618_m1), beta-actin (Mm00607939_s1), beta-2 microglobulin (Mm00437762_m1), CBP (Mm01342435_m1), p38 MAPK alpha (Mm00442497_m1), p38 MAPK beta (Mm00440955_m1). Expression of target genes was normalized against the expression of Gusb as endogenous control gene. Data were derived from at least 5 independent experiments.

VEGFD [2] = experiment: qRT-PCR analysis of VEGFD expression in hippocampal neurons; settings: hippocampal neurons infected with rAAV
Method: as §1, §2

VEGFD [3] = experiment: Immunoblot analysis of VEGFD expression in hippocampal neurons; settings: hippocampal neurons infected with rAAV
Excerpt: C: Immunoblot analysis of VEGFD expression in uninfected hippocampal neurons and in hippocampal neurons infected with the indicated rAAVs. Tubulin was used for loading control. Neurons infected with rAAV-emptymC, rAAV-shVEGFD and rAAV-shSCR were detected by DsRed immunostaining (see above).
Mouse monoclonal antibody to tubulin (Sigma); mouse monoclonal NeuN antibody (Chemicon); mouse monoclonal anti-phospho-p38 MAP kinase antibody (BD); rabbit polyclonal antibodies to the HA tag, anti-VEGFD antibodies, anti-VEGFR3 (Santa Cruz); rabbit polyclonal antibody to phosphor-CREB (Upstate-Millipore); rabbit polyclonal antibody to phosphor-CaMKII (Promega); rabbit polyclonal antibodies to phosphor-MSK1, phosphor-ATF2, phosphor-ERK, phosphor-Akt, phosphor-MKK4, phosphor-JNK, phosphor-p70, phosphor-GSKα/β (Cell Signaling). Rabbit polyclonal antibodies to DsRed (Clontech). AlexaFluor 488-, AlexaFluor 594-, and AlexaFluor 633-labled secondary antibodies were from Molecular Probes (Eugene, Oreg., USA).

hippocampal cultures = experiment: MEA recordings of spontaneous network activity; settings: infected cultures versus rAAV-shSCR or rAAV-emptymC
Method: MEA recordings were done as known in the art. From DIV7 to DIV13, recordings of spontaneous network activity were acquired for 5 min once per day.

shVEGFD: shRNA targeting mouse VEGFD mRNA (GGGCTTCAGGAGCGAACAT; SEQ ID NO: 1), expressed from rAAV vector or plasmid with U6 promoter
mRNA levels of respective targets [1]: reduced mRNA levels of their respective targets | Expression of VEGFC (VEGFC): not affected | VEGFD mRNA levels (VEGFD [2]): reduced VEGFD mRNA levels | VEGFD protein expression (immunoblot) (VEGFD [3]): blocked VEGFD protein expression | spike frequencies (hippocampal cultures): reduced
